System: layer V pyramidal neurons
Assay: Whole cell recordings, layer V prelimbic cortex neurons, WT mice
Format: cell-based, mouse
Details: glycine 1 mM
Description: FIGS. 15A-15H. Effect of glycine and taurine on excitability of layer V neurons and membrane properties of layer II/III neurons in wild type and GPR158 knockout mice. A) Representative traces of voltage responses to a 200 pA current ramp injection obtained from layer V pyramidal neurons in WT mice under control conditions and during bath application of glycine (1 mM). B) Quantification of glycine effects on neuronal excitability by number of action potentials fired in response to 200 pA current ramp under control condition and glycine application (n=4 neurons/3 mice). Nonparametric t-test; Wilcoxon test, ns=p>0.05. C) Quantification of glycine effects on neuronal excitability by rheobase current under control condition and glycine application (n=4 neurons/3 mice). Nonparametric t-test; Wilcoxon test, ns=p>0.05. […]
Electrophysiological recordings from layer II-III and layer V neurons of the prelimbic cortex were performed with C57Bl6 mice of either sex aged between 6-12 weeks. […] The Rheobase current was defined as the minimum current necessary to elicit the first AP and changes in neuronal excitability were assessed by counting the number of spikes evoked in response to 1-s depolarizing ramp ranging from 0 to 200 pA with a 20-s intertrial interval. […]

For `NCC(=O)O` [glycine], the “intrinsic excitability of layer V neurons” value was “did not produce any changes” and the resting membrane potential (layer V) was “ns”.
